# Measured values published in US20260345582A1, “PRODRUG FOR ANTI-AGING RELATED DISEASES AND USE METHOD THEREOF” (Beijing SunCell Bio-Medical Co., Ltd., priority 2022, published 2026).
# Key:
# [1] = system: BJ cells (human skin fibroblast cell line); assay: in vitro killing of induced senescent BJ cells (CCK-8); type: cell-based; conditions: human skin-derived fibroblasts, FIG. 3D
# From the text: (§1) Induction of the Cellular Senescence
# [2] = liver microsomal metabolic stability, all species; type: in vitro ADME, rat and mouse; conditions: human, monkey, canine, rat, mouse; Table 4
# Method: (§2) Hepatic Microsomal Metabolic Stability
# The entire experiment was performed in triplicate. All data calculations were performed by Microsoft Excel software. Peak areas were detected by extracting the ionic spectrum.
# The in vitro half-life (t1/2) was calculated by slope: in vitro t½=0.693/k
# [3] = system: normal cells (HEF, HELF, A549, MRC5, BJ, HUVEC); assay: in vitro toxicity to normal (non-senescent) cells, multiple cell models (CCK-8); type: cell-based, human; conditions: especially some cells of primary origins sensitive to Bcl-xL inhibition
# From the text: as §1
# [4] = plasma metabolic stability, human; type: in vitro ADME; conditions: 120 min
# Method: (§3) Plasma Metabolic Stability
# (§4) Termination of the reaction was accomplished by the addition of 3× volume of acetonitrile and centrifugation at 16000 g for 20 minutes. The supernatant was taken for a LC-MS/MS analysis. The chromatographic column: Waters XSelect HSS T3; the flow rate: 500 μL/min; the eluent: A, water (0.1% formic acid); B, acetonitrile (0.1% formic acid); the gradient elution: 0-1.5 min, 5% B, 1.5-9 min, 5%-80% B, 9-12 min, 80%-100% B, 12-14 min, 100% B, 14-14.3 min, 100%-5% B, 14.3-15 min, 5% B.
# [5] = plasma metabolic stability, rat; type: in vitro ADME; conditions: 120 min
# Method: as §3, §4
# [6] = plasma metabolic stability, canine; type: in vitro ADME; conditions: dog, 120 min
# Method: as §3, §4
# [7] = biological target: E. coli-derived β-galactosidase (Escherichia coli, UniProt P00722); assay: in vitro enzymatic hydrolysis of the prodrug by β-galactosidase (HPLC); type: biochemical; conditions: role: substrate, 10 μM, β-galactosidase 10 U/μM, PBS 0.01 M pH 7.3, 37 °C, 6 hours, FIG. 2C
# Method: Study of the Hydrolysis Reaction of A13bG
# The in vitro enzymatic hydrolysis reaction was carried out using E. coli-derived β-galactosidase (Sigma) in PBS solution (0.01 M, pH 7.3) at a reaction concentration of 10 μM for both A13 and A13bG, and for 6 hours at 37 °C after the addition of β-galactosidase (10 U/μM). The hydrolysis reaction was monitored by the high performance liquid chromatography (HPLC). The compound A13 and the prodrug A13bG without enzyme reaction were analyzed by HPLC at the same conditions as the references. The chromatographic column model: Waters Acquity BEH C4, the conditions: 0.04 ml/min, (water (0.1% acetic acid)): the acetonitrile gradient elution: 98:2 1 min, 5:95 13 min, 5:95 18 min, 2:98 20 min.
# [8] = liver microsomal metabolic stability, canine
# Method: as §2
# (§5) A13bGa1 was co-incubated with the mouse, rat, canine, monkey and human […] and the incubation medium at a final drug concentration of 1 μM in the incubation system for 60 minutes. Samples were taken and analyzed at time points 0, 15, 30, 45 and 60 minutes during the incubation. The reaction was terminated by adding an amount of acetonitrile solution containing the internal standard. […] The residual percentage, half-life, intrinsic clearance, amplified clearance, hepatic clearance and hepatic extraction ratio were determined. The entire experiment was performed in triplicate. All data calculations were performed by Microsoft Excel software. Peak areas were detected by extracting the ionic spectrum. The in vitro half-life (t1/2) of the parent compound was detected by fitting the natural logarithm of the percentage elimination of the parent compound linearly to time.
# (§6) The in vitro intrinsic clearance (in μL/min/mg protein) was calculated using the following equation: in vitro CLint=kV/N
# (§7) The amplified clearance (in mL/min/kg) was calculated using the following equation: Amplified CLint=kV/N×the amplification factor
# (§8) The hepatic clearance (in mL/min/kg) was calculated using the following equation: The predicted hepatic CLH=(Q×Fu/RB×the amplified CLint)/(Q+Fu/RB×the amplified CLint) • V=the incubation volume per well (0.2 mL); • N=the total amount of protein (mg) • Q=the hepatic blood flow (mL/min/kg) • Fu=the plasma free rate (assumed to be 1) • RB=the whole blood partition coefficient (assumed to be 1)
# (§9) The hepatic uptake rate was calculated using the following equation:
# (§10) The hepatic extraction ratio (ER)=(the predicted hepatic CLH)/Q
# [9] = system: HUVEC cells (human umbilical vein endothelial cell line); assay: in vitro killing of induced senescent HUVEC cells (CCK-8); type: cell-based; conditions: vascular endothelial-derived, FIG. 3F
# From the text: as §1
# [10] = liver microsomal metabolic stability, monkey
# Method: as §2, §5, §6, §7, §8, §9, §10
# [11] = 10 μM prodrug, read-out: The peak area after normalisation at minute 120, oxidative dehydrogenation metabolite
# [12] = 10 μM, read-out: The peak area after normalisation at minute 120, initial drug
# E. coli-derived β-galactosidase, sequence (P00722 whole entry): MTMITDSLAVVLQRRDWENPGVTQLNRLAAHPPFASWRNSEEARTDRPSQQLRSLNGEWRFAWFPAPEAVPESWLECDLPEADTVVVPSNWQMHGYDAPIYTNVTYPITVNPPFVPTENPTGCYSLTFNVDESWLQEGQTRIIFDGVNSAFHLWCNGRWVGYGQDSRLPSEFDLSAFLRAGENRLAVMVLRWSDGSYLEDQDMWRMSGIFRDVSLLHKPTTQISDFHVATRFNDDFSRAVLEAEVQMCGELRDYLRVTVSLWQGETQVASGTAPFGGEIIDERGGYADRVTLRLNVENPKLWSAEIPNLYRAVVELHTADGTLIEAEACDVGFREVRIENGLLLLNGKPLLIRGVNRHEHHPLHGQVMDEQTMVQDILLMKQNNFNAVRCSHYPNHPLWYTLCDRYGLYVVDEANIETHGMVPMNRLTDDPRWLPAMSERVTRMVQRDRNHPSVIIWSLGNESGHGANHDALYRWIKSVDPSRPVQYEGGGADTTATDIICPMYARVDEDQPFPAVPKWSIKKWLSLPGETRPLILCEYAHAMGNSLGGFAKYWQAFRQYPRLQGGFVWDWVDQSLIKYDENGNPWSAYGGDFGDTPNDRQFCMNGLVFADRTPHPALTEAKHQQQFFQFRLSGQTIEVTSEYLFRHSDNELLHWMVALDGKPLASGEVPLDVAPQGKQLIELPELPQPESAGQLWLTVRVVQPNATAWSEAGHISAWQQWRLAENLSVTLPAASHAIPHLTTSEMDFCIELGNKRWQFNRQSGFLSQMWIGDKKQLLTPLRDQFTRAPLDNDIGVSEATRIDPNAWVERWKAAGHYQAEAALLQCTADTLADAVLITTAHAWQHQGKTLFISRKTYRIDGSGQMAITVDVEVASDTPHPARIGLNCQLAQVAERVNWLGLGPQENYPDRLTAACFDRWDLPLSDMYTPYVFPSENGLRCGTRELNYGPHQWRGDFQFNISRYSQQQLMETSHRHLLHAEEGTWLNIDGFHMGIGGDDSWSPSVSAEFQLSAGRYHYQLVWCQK
smiles,measurement,setting,value
Cc1c(-c2ccc(N3CCc4cccc(C(=O)Nc5nc6ccccc6s5)c4C3)nc2C(=O)OCc2ccc(O[C@@H]3O[C@H](CO)[C@H](O)[C@H](O)[C@H]3O)c([N+](=O)[O-])c2)cnn1CC12CC3CC(CC(C3)C1)C2 [Compound A13bGa1],"killing of the senescent cells, efficiency and selectivity",[1],highly efficient and selective in killing the senescent cells
same,liver microsomal metabolic stability,[2],good moderate metabolic stability
same,toxicity to the normal cells compared with the parent compound A13,[3],greatly reduced
same,"metabolised at 2 h, 10 µM",[4]; [11],0.07%
same,"remaining at 2 h, 10 µM",[4]; [12],99.9%
same,"metabolised at 2 h, 10 µM",[5]; [11],0.13%
same,"remaining at 2 h, 10 µM",[5]; [12],99.9%
same,"metabolised at 2 h, 10 µM",[6]; [11],0.48%
same,"remaining at 2 h, 10 µM",[6]; [12],99.5%
same,"hydrolysis under the action of β-gal enzyme, release of the parent compound A13",[7],hydrolysed under the action of β-gal enzyme to release the parent compound A13
same,The hepatic extraction ratio (E),[8]; canine,0.70
same,The intrinsic clearance in vitro Clint,"[8]; canine, 1 μM, 60 min",29.31 μL/min/mg protein
same,The predicted intrinsic hepatic clearance Clint,"[8]; canine, Fu and RB assumed to be 1",21.72 mL/min/kg
same,CLint scaled at 1 µM,"[8]; dog, microsomes",73.1 mL/min/kg
same,"half-life at 1 h, 1 µM","[8]; dog, microsomes",47.3 min
same,"killing of the senescent cells, efficiency and selectivity",[9],highly efficient and selective in killing the senescent cells
same,The hepatic extraction ratio (E),[10],0.69
same,The intrinsic clearance in vitro Clint,"[10]; 1 μM, 60 min",65.35 μL/min/mg protein
same,The predicted intrinsic hepatic clearance Clint,[10]; Fu and RB assumed to be 1,30.18 mL/min/kg
same,CLint scaled at 1 µM,[10]; microsomes,98 mL/min/kg
same,"half-life at 1 h, 1 µM",[10]; microsomes,21.2 min
